≈ marks a conversion by molar mass, not a printed value. Where two headings read alike, the source gives them in different places.
Key:
[1] = test system: Bac.Subt.ATCC 6633; experiment: agar serial dilution test; format: cell-based, Bacillus subtilis; details: agar serial dilution, 24 hours, 37° C.; for MIC: Bacillus subtilis, ATCC6633, 24 h, read-out: minimal inhibitory concentration (MIC)
[2] = test system: Staph.aureus A 321; experiment: agar serial dilution test; format: cell-based, Staphylococcus aureus; details: agar serial dilution, 24 hours, 37° C.; for MIC: Staphylococcus aureus, A321, 24 h, read-out: minimal inhibitory concentration (MIC)
[3] = test system: Staph.aureus A 2000; experiment: agar serial dilution test; format: cell-based, Staphylococcus aureus; details: agar serial dilution, 24 hours, 37° C.; for MIC: Staphylococcus aureus, A2000, 24 h, read-out: minimal inhibitory concentration (MIC)
[4] = test system: Staph.aureus A 2001; experiment: agar serial dilution test; format: cell-based, Staphylococcus aureus; details: agar serial dilution, 24 hours, 37° C.; for MIC: Staphylococcus aureus, A2001, 24 h, read-out: minimal inhibitory concentration (MIC)
[5] = test system: Strep. faec. L 80; experiment: agar serial dilution test; format: cell-based, Streptococcus faecalis; details: agar serial dilution, 24 hours, 37° C.; for MIC: Enterococcus faecalis, read-out: minimal inhibitory concentration (MIC)
[6] = test system: Dipl.pneum. L 54; experiment: agar serial dilution test; format: cell-based, Diplococcus pneumoniae; details: agar serial dilution, 24 hours, 37° C.; for MIC: Streptococcus pneumoniae, read-out: minimal inhibitory concentration (MIC)
[7] = test system: Past.multo. A 723; experiment: agar serial dilution test; format: cell-based, Pasteurella multocida; details: agar serial dilution, 24 hours, 37° C.; for MIC: Pasteurella multocida, read-out: minimal inhibitory concentration (MIC)
[8] = test system: Kleb.pneum. A 809; experiment: agar serial dilution test; format: cell-based, Klebsiella pneumoniae; details: agar serial dilution, 24 hours, 37° C.; for MIC: Klebsiella pneumoniae, read-out: minimal inhibitory concentration (MIC)
[9] = test system: Salm.dubl. P 43; experiment: agar serial dilution test; format: cell-based, Salmonella dublin; details: agar serial dilution, 24 hours, 37° C.; for MIC: Salmonella enterica, read-out: minimal inhibitory concentration (MIC)
[10] = test system: Salm.typh. R 127; experiment: agar serial dilution test; format: cell-based; details: 37° C.; for minimal inhibitory concentration (MIC): 24 hours; for MIC: 24 h, read-out: minimal inhibitory concentration (MIC)
[11] = test system: Esch.coli U 20; experiment: agar serial dilution test; format: cell-based, Escherichia coli; details: for MIC: Escherichia coli
[12] = test system: Shig.equir. T 3; experiment: agar serial dilution test; format: cell-based; details: 37° C.; for MIC: 24 h, read-out: minimal inhibitory concentration (MIC)
[13] = test system: Pseud.aerug. H 10; experiment: agar serial dilution test; format: cell-based; details: agar serial dilution, 24 hours, 37° C.; for MIC: read-out: minimal inhibitory concentration (MIC)
[14] = test system: Pseud.aerug. 2396; experiment: agar serial dilution test; format: cell-based; details: agar serial dilution, 24 hours, 37° C.; for MIC: read-out: minimal inhibitory concentration (MIC)
[15] = test system: Pseud.aerug. Wyeth A 1058; experiment: agar serial dilution test; format: cell-based; details: agar serial dilution, 24 hours, 37° C.; for MIC: read-out: minimal inhibitory concentration (MIC)
[16] = test system: Prot.rettg. A 821; experiment: agar serial dilution test; format: cell-based, Proteus rettgeri; details: agar serial dilution, 24 hours, 37° C.; for MIC: Providencia rettgeri, 24 h, read-out: minimal inhibitory concentration (MIC)
[17] = test system: Prot.mirab. H 3; experiment: agar serial dilution test; format: cell-based, Proteus mirabilis; details: agar serial dilution, 24 hours, 37° C.; for MIC: Proteus mirabilis, read-out: minimal inhibitory concentration (MIC)
[18] = test system: Prot.mirab. L 93; experiment: agar serial dilution test; format: cell-based, Proteus mirabilis; details: for MIC: Proteus mirabilis
[19] = test system: Prot.mirab. A 1200; experiment: agar serial dilution test; format: cell-based, Proteus mirabilis; details: agar serial dilution, 24 hours, 37° C.; for MIC: Proteus mirabilis, 24 h, read-out: minimal inhibitory concentration (MIC)
[20] = test system: Prot.morg. 2241; experiment: agar serial dilution test; format: cell-based; details: agar serial dilution, 24 hours, 37° C.; for MIC: 24 h, read-out: minimal inhibitory concentration (MIC)
[21] = test system: Staph.aureus A 355; experiment: micro serial dilution test; format: cell-based, Staphylococcus aureus; details: micro serial dilution (in brackets), about 18 hours, 30° C. or 37° C., penicillinase-producing strain; for MIC: Staphylococcus aureus, A355, read-out: minimal inhibitory concentration (MIC)
Source text: Two drops of a stock solution of the test compound (antibiotic) in a known concentration were brought into the first hole of a test plate with 9 numbered holes with a sterile Pasteur pipette. After rinsing this pipette three times with a physiological NaCl-solution, two drops of a stock solution of the test organism in a culture medium were brought in all the holes except for hole 8. In the first hole, the solution of the tested compound had been half diluted, then by stirring the liquid in the first hole and adding two drops of this mixture to the second hole and so on until hole 8, dilutions of the test compound solution were obtained in geometrical progression. The hole 9 contained no antibiotic and served for checking the growth of the testogranism in a blank medium. The test plate was incubated at 30° C. or 37° C. for about 18 hours.
^1 Penicillinase-producing strain

[22] = test system: Staph.aureus A 2000; experiment: micro serial dilution test; format: cell-based, Staphylococcus aureus; details: micro serial dilution (in brackets), about 18 hours, 30° C. or 37° C.; for MIC: Staphylococcus aureus, A2000, 18 h, read-out: minimal inhibitory concentration (MIC)
[23] = test system: Staph.aureus A 2001; experiment: micro serial dilution test; format: cell-based, Staphylococcus aureus; details: micro serial dilution (in brackets), about 18 hours, 30° C. or 37° C.; for MIC: Staphylococcus aureus, A2001, 18 h, read-out: minimal inhibitory concentration (MIC)
[24] = test system: Haem.infl. A 1030; experiment: micro serial dilution test; format: cell-based; details: micro serial dilution (in brackets), about 18 hours, 30° C. or 37° C.; for MIC: 18 h, read-out: minimal inhibitory concentration (MIC)
[25] = test system: Staph.aureus A 355; experiment: agar serial dilution test; details: penicillinase-producing strain; for MIC: Staphylococcus aureus, A355, 24 h, read-out: minimal inhibitory concentration (MIC), agar serial dilution, 24 hours, 37° C.
[26] = test system: Strep.haem. A 266; experiment: agar serial dilution test; format: cell-based, Streptococcus haemolyticus; details: Streptococcus; agar serial dilution, 24 hours, 37° C.; read-out: minimal inhibitory concentration (MIC)
[27] = agar serial dilution, 24 hours, 37° C.
[28] = U20, agar serial dilution, 24 hours, 37° C., read-out: minimal inhibitory concentration (MIC)
[29] = agar serial dilution, 24 hours, 37° C., read-out: minimal inhibitory concentration (MIC)

7-[α-morpholino(3-methyl-1,2,4-oxadiazol-5-yl)-acetamido]-3-acetoxymethyl-3-cephem-4-carboxylic acid [Compound E]
minimal inhibitory concentration (MIC) [1]: 6 mg/L
minimal inhibitory concentration (MIC) [2]: 6 mg/L
minimal inhibitory concentration (MIC) [3]: 12.5 mg/L
minimal inhibitory concentration (MIC) [4]: 12.5 mg/L
minimal inhibitory concentration (MIC) [5]: > 100 mg/L
minimal inhibitory concentration (MIC) [6]: 12.5 mg/L
minimal inhibitory concentration (MIC) [7]: 6 mg/L
minimal inhibitory concentration (MIC) [8]: 25 mg/L
minimal inhibitory concentration (MIC) [9]: > 100 mg/L
minimal inhibitory concentration (MIC) [10]: > 100 mg/L
minimal inhibitory concentration (MIC) [11, 27]: > 100 mg/L
minimal inhibitory concentration (MIC) ([12]; 24 hours): > 100 mg/L
minimal inhibitory concentration (MIC) [13]: > 100 mg/L
minimal inhibitory concentration (MIC) [14]: > 100 mg/L
minimal inhibitory concentration (MIC) [15]: > 100 mg/L
minimal inhibitory concentration (MIC) [16]: 3 mg/L
minimal inhibitory concentration (MIC) [17]: > 100 mg/L
minimal inhibitory concentration (MIC) [18, 27]: 100 mg/L
minimal inhibitory concentration (MIC) [19]: > 100 mg/L
minimal inhibitory concentration (MIC) [20]: > 100 mg/L
minimal inhibitory concentration (MIC) [21]: 8 mg/L
minimal inhibitory concentration (MIC) [22]: 8 mg/L
minimal inhibitory concentration (MIC) [23]: 4 mg/L
minimal inhibitory concentration (MIC) [24]: > 125 mg/L
minimal inhibitory concentration (MIC) [25, 27]: 12.5 mg/L

CC(=O)OCC1=C(C(=O)O)N2C(=O)[C@@H](NC(=O)Cc3noc(Cc4ccccc4)n3)[C@H]2SC1 [Compound C, 7-[(5-benzyl-1,2,4-oxadiazol-3-yl)-acetamido]-3-acetoxymethyl-3-cephem-4-carboxylic acid]
MIC [1]: 0.25 mg/L (≈ 0.529 µM)
MIC [2]: 0.25 mg/L (≈ 0.529 µM)
MIC [3]: 0.25 mg/L (≈ 0.529 µM)
MIC [4]: 0.25 mg/L (≈ 0.529 µM)
MIC [26]: 0.5 mg/L (≈ 1.06 µM)
MIC [5]: 12.5 mg/L (≈ 26.5 µM)
MIC [6]: 0.5 mg/L (≈ 1.06 µM)
MIC [7]: 1 mg/L (≈ 2.12 µM)
MIC [8]: 12.5 mg/L (≈ 26.5 µM)
MIC [9]: > 100 mg/L
MIC [10]: > 100 mg/L
MIC [11, 28]: > 100 mg/L
MIC [12]: 25 mg/L (≈ 52.9 µM)
MIC [13]: > 100 mg/L
MIC [14]: > 100 mg/L
MIC [15]: > 100 mg/L
MIC [16]: 50 mg/L (≈ 106 µM)
MIC [17]: > 100 mg/L
MIC [18, 29]: 25 mg/L (≈ 52.9 µM)
MIC [19]: > 100 mg/L
MIC [20]: > 100 mg/L
MIC [21]: 0.6 mg/L (≈ 1.27 µM)
MIC [22]: 0.3 mg/L (≈ 0.635 µM)
MIC [23]: 0.6 mg/L (≈ 1.27 µM)
MIC [24]: 125 mg/L (≈ 265 µM)
MIC [25]: 0.75 mg/L (≈ 1.59 µM)

CC(=O)OCC1=C(C(=O)O)N2C(=O)[C@@H](NC(=O)Cc3nc(C)no3)[C@H]2SC1 [Compound D, sodium-7-[(3-methyl-1,2,4-oxadiazol-5-yl)-acetamido]-3-acetoxymethyl-3-cephem-4-carboxylate]
minimal inhibitory concentration (MIC) [1]: 0.12 mg/L
MIC [2]: 0.5 mg/L
MIC [3]: 0.75 mg/L
MIC [4]: 0.75 mg/L
MIC [5]: 50 mg/L
MIC [6]: 0.75 mg/L
MIC [7]: 1.5 mg/L
MIC [8]: 3 mg/L
MIC [9]: 3 mg/L
minimal inhibitory concentration (MIC) [10]: 12.5 mg/L
MIC ([11]; U20, 24 h, read-out: minimal inhibitory concentration (MIC), agar serial dilution, 24 hours, 37° C.): 12.5 mg/L
MIC [12]: 6 mg/L
MIC [13]: > 100 mg/L
MIC [14]: > 100 mg/L
MIC [15]: > 100 mg/L
MIC [16]: 1.5 mg/L
MIC [17]: 25 mg/L
MIC ([18]; 24 h, read-out: minimal inhibitory concentration (MIC), agar serial dilution, 24 hours, 37° C.): 12.5 mg/L
minimal inhibitory concentration (MIC) [19]: 25 mg/L
MIC [20]: > 100 mg/L
MIC [21]: 0.6 mg/L
MIC [22]: 1 mg/L
MIC [23]: 0.6 mg/L
minimal inhibitory concentration (MIC) [24]: 30 mg/L
MIC [25]: 0.5 mg/L

COC(=O)C(C(=O)N[C@@H]1C(=O)N2C(C(=O)O)=C(COC(C)=O)CS[C@H]12)c1nc(C)no1 (stereo partly drawn) [Example 38, 7-[3-methyl-α-carbomethoxy-1,2,4-oxadiazol-5-yl-acetamido]cephalosporanic acid]
MIC [1]: 6 mg/L (≈ 13.2 µM)
MIC [2]: 25 mg/L (≈ 55 µM)
MIC [3]: 25 mg/L (≈ 55 µM)
MIC [4]: 25 mg/L (≈ 55 µM)
MIC [5]: > 100 mg/L
MIC [6]: 12.5 mg/L (≈ 27.5 µM)
MIC [7]: 12.5 mg/L (≈ 27.5 µM)
MIC [8]: 50 mg/L (≈ 110 µM)
MIC [9]: 100 mg/L (≈ 220 µM)
MIC [10]: 100 mg/L (≈ 220 µM)
MIC [11, 28]: > 100 mg/L
MIC [12]: 50 mg/L (≈ 110 µM)
MIC [13]: > 100 mg/L
MIC [14]: > 100 mg/L
MIC [15]: > 100 mg/L
MIC [16]: 25 mg/L (≈ 55 µM)
MIC [17]: 100 mg/L (≈ 220 µM)
MIC [18, 29]: 50 mg/L (≈ 110 µM)
MIC [19]: > 100 mg/L
MIC [20]: > 100 mg/L
MIC [21]: 23 mg/L (≈ 50.6 µM)
MIC [22]: 23 mg/L (≈ 50.6 µM)
MIC [23]: 15 mg/L (≈ 33 µM)
MIC [24]: 125 mg/L (≈ 275 µM)
MIC [25]: 25 mg/L (≈ 55 µM)
